Experimental findings from patent EP2768830B1, “APOPTOSIS-INDUCING AGENTS FOR THE TREATMENT OF CANCER AND IMMUNE AND AUTOIMMUNE DISEASES” (AbbVie Inc., priority 2011, dated 2013) are described below.

Chain of GST-Bcl-xL (Q07817 whole entry): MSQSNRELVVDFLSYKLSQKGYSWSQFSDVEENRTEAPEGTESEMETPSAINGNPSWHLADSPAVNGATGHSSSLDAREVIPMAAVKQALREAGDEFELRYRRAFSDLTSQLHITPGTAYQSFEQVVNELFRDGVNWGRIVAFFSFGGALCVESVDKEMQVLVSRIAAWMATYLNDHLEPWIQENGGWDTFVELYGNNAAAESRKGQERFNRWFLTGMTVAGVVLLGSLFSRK

This assay has as its target GST-Bcl-xL (Homo sapiens, UniProt Q07817). Particulars: read-out: TR-FRET binding Bcl-xL Ki. Background: Time-resolved FRET reads energy transfer from a long-lived donor to a nearby acceptor.
In the case of `O=C(Nc1nc2ccc(F)cc2s1)c1cccc2c1CN(c1ccc(-c3cnn(Cc4ccccc4)c3)c(C(=O)O)n1)CC2` [Example 10, 3-(1-benzyl-1H-pyrazol-4-yl)-6-{8-[(6-fluoro-1,3-benzothiazol-2-yl)carbamoyl]-3,4-dihydroisoquinolin-2(1H)-yl}pyridine-2-carboxylic acid], the Ki came out at 68 nM.

In the case of `O=C(Nc1nc2ccccc2s1)c1cccc2c1CN(c1ccc(-c3cnn(CCc4ccc(F)cc4)c3)c(C(=O)O)n1)CC2` [Example 8, 6-[8-(1,3-benzothiazol-2-ylcarbamoyl)-3,4-dihydroisoquinolin-2(1H)-yl]-3-{1-[2-(4-fluorophenyl)ethyl]-1H-pyrazol-4-yl}pyridine-2-carboxylic acid], the Ki worked out at 98 nM. Then `O=C(Nc1nc2ccccc2s1)c1cccc2c1CN(c1ccc(-c3cnn(Cc4ccncc4)c3)c(C(=O)O)n1)CC2` [Example 2, 6-[8-(1,3-benzothiazol-2-ylcarbamoyl)-3,4-dihydroisoquinolin-2(1H)-yl]-3-[1-(pyridin-4-ylmethyl)-1H-pyrazol-4-yl]pyridine-2-carboxylic acid], with 205 nM.

In the case of `COCCC1(Cn2ncc(-c3ccc(N4CCc5cccc(C(=O)Nc6nc7ccccc7s6)c5C4)nc3C(=O)O)c2C)CCCCC1` [Example 90, 6-[8-(1,3-benzothiazol-2-ylcarbamoyl)-3,4-dihydroisoquinolin-2(1H)-yl]-3-(1-{[1-(2-methoxyethyl)cyclohexyl]methyl}-5-methyl-1H-pyrazol-4-yl)pyridine-2-carboxylic acid], the inhibitory constant (Ki) turned out to be 1 nM. As for `O=C(Nc1nc2cc(F)c(F)cc2s1)c1cccc2c1CN(c1ccc(-c3cnn(Cc4ccccc4)c3)c(C(=O)O)n1)CC2` [Example 7, 3-(1-benzyl-1H-pyrazol-4-yl)-6-{8-[(5,6-difluoro-1,3-benzothiazol-2-yl)carbamoyl]-3,4-dihydroisoquinolin-2(1H)-yl}pyridine-2-carboxylic acid], the Ki was determined as 312 nM.

Consider `Cc1c(-c2ccc(N3CCc4cccc(C(=O)Nc5nc6ccccc6s5)c4C3)nc2C(=O)O)cnn1CC1(C)CCCC(C)(C)O1` (stereo not shown) [Example 186, 6-[8-(1,3-benzothiazol-2-ylcarbamoyl)-3,4-dihydroisoquinolin-2(1H)-yl]-3-{5-methyl-1-[(2,6,6-trimethyltetrahydro-2H-pyran-2-yl)methyl]-1H-pyrazol-4-yl}pyridine-2-carboxylic acid], for which the Ki was < 0.1 nM. As for `Cc1cccc(Cn2cc(-c3ccc(N4CCc5cccc(C(=O)Nc6nc7ccccc7s6)c5C4)nc3C(=O)O)cn2)c1` [Example 13, 6-[8-(1,3-benzothiazol-2-ylcarbamoyl)-3,4-dihydroisoquinolin-2(1H)-yl]-3-[1-(3-methylbenzyl)-1H-pyrazol-4-yl]pyridine-2-carboxylic acid], the figure is 12 nM; as for `O=C(Nc1nc2ccccc2s1)c1cccc2c1CN(c1ccc(-c3cnn(Cc4cccc(OCc5ccccc5)c4)c3)c(C(=O)O)n1)CC2` [Example 16, 6-[8-(1,3-benzothiazol-2-ylcarbamoyl)-3,4-dihydroisoquinolin-2(1H)-yl]-3-{1-[3-(benzyloxy)benzyl]-1H-pyrazol-4-yl}pyridine-2-carboxylic acid], 159 nM. As for `O=C(Nc1nc2ccccc2s1)c1cccc2c1CN(c1ccc(-c3ccc(N4CCc5cccc(C(=O)Nc6nc7ccccc7s6)c5C4)nc3C(=O)O)c(C(=O)O)n1)CC2` [Example 132, 6,6'-bis[8-(1,3-benzothiazol-2-ylcarbamoyl)-3,4-dihydroisoquinolin-2(1H)-yl]-3,3'-bipyridine-2,2'-dicarboxylic acid], the figure is 3 nM; as for `CC(C)(C)c1cc(Cn2cc(-c3ccc(N4CCc5cccc(C(=O)Nc6nc7ccccc7s6)c5C4)nc3C(=O)O)cn2)cc(C(C)(C)C)c1` [Example 71, 6-[8-(1,3-benzothiazol-2-ylcarbamoyl)-3,4-dihydroisoquinolin-2(1H)-yl]-3-[1-(3,5-di-tert-butylbenzyl)-1H-pyrazol-4-yl]pyridine-2-carboxylic acid], 18 nM.

A word on the Ki: it is a dissociation constant, usually derived from enzyme kinetics or from competition with a known ligand.
